Results as given in US5352667A, “Non-peptidic surrogates of the Arg-Gly-Asp sequence and pharmaceutical compositions comprising them” (priority 1991, dated 1994).

Assays:
[1] = system: CD4^+ T cell adhesion to FN; assay: Inhibition of activated CD4+ T cell adhesion to FN; assay type: cell-based, human; conditions: Table 1B, surrogates 0.2 mM; for % Inhibition of adhesion: CD4^+ T cell to FN; for % Adhesion of activated CD4^+ to FN: none 65
Procedure: (§1) To examine the adhesive properties of the T cells, 1 μg/50 μl/well of either fibronectin (FN) (Sigma), the 120 kD cell attachment fragment of FN (Telios Pharm. Inc. San Diego, CA), or laminin (LN) (Sigma), were added to 96-flat bottom microtiter-wells for 12 h. Unbound proteins were then washed away and remaining binding sites were blocked with 0.1% bovine serum albumin (BSA) added to the wells for 2 h and washed. CD4+T cells were purified from peripheral blood mononuclear leukocytes obtained from healthy human donors. The mononuclear cells were isolated using a Ficoll gradient, washed and incubated in RPMI supplemented with 10% fetal calf serum (FCS) and antibiotics in petri dishes at 37° C. humidified CO2 incubator. After 2 h, the non-adherent cells were isolated and applied on nylon-wool columns (1.5 h). CD4^+ T cells were then negatively selected by exposure of the cells to a cocktail of anti-CD8, CD19, and CD14 monoclonal antibodies (mAb) conjugated to magnetic-beads (Advanced Magnetics, MA). Unbound cells were recovered and their phenotype was examined. Purity of the CD4^+ T cells was always greater than 92% as determined by FACScan.
The purified CD4^+ T cells were radioactively labeled with ^51 [Cr](New England Nuclear) in RPMI +20% FCS for 2 h and washed. The cells were counted and seeded (0.2×10^5 cells) on the precoated microtiter wells in the presence or the absence of the various inhibitors. Coating was made either with FN, the 120 kD cell-attachment fragment of FN or with control adhesive protein laminin (LN). The inhibitors were various surrogates according to the invention, other test molecules or mAb. After 30 min incubation (in […] CO2 -- humidified incubator) the T cells were activated by 10 ng/ml phorbol myristate acetate (PMA) and the percent of T cells attached to the protein substrates was measured. Unbound cells were washed away after 20-30 min, the bound cells were lysed and their radioactivity was measured using radioactive counter. The amount of the radioactivity of the cell lysates represent the matrix-adherent cells and percent binding was calculated in comparison to the total radioactivity added to the wells. Activated T cell adhesion to control wells or to wells coated with BSA was always 2-5%; the level of adhesion of the non-activated T cells was always below 5%. Where indicated, 1/200 diluted mAb anti-CD29 (anti-β1 mAb Serotec, GB), or 1/400 diluted anti-VLA5 (the β1α5 FN-integrin receptor) mAb (Telios Pharm. Inc. San Diego), or 0.2 mM of RGD, GRGDSPK or GRGESP peptides (Sigma) were used. […] The results shown in Tables 1A, 1B and 1C represent data obtained from several experiments that produced essentially similar results.
In a second series of experiments, FN was used in the adhesion assay carried out with the RGD surrogates NS-8, NS-11 and NS-15 in comparison to RGDS peptide.
In a third series of experiments, FN was used in the adhesion assay with the surrogates SF-6,5 and NS-11 and compared to the peptide GRGDSP.

[2] = system: CD4^+ T cell adhesion to LN; assay: Inhibition of activated CD4+ T cell adhesion to laminin (LN); assay type: cell-based, human; conditions: for % inhibition of adhesion of activated CD4^+ T cell to LN / % Adhesion of activated CD4^+ T cell to LN: 0.2 mM peptides and surrogates, mAb anti-CD29 1/200, anti-VLA5 1/400 diluted; for % inhibition of adhesion of activated CD4^+ T cell to LN: * P<0.05; for % Adhesion of activated CD4^+ T cell to LN: none 55 ± 5
Procedure: as §1
(§2) The purified CD4^+ T cells were radioactively labeled with ^51 [Cr](New England Nuclear) in RPMI +20% FCS for 2 h and washed. The cells were counted and seeded (0.2×10^5 cells) on the precoated microtiter wells in the presence or the absence of the various inhibitors. Coating was made either with FN, the 120 kD cell-attachment fragment of FN or with control adhesive protein laminin (LN). The inhibitors were various surrogates according to the invention, other test molecules or mAb. After 30 min incubation (in […] CO2 -- humidified incubator) the T cells were activated by 10 ng/ml phorbol myristate acetate (PMA) and the percent of T cells attached to the protein substrates was measured. Unbound cells were washed away after 20-30 min, the bound cells were lysed and their radioactivity was measured using radioactive counter. The amount of the radioactivity of the cell lysates represent the matrix-adherent cells and percent binding was calculated in comparison to the total radioactivity added to the wells. Activated T cell adhesion to control wells or to wells coated with BSA was always 2-5%; the level of adhesion of the non-activated T cells was always below 5%. Where indicated, 1/200 diluted mAb anti-CD29 (anti-β1 mAb Serotec, GB), or 1/400 diluted anti-VLA5 (the β1α5 FN-integrin receptor) mAb (Telios Pharm. Inc. San Diego), or 0.2 mM of RGD, GRGDSPK or GRGESP peptides (Sigma) were used. The tested non-peptidic surrogates, 0.2 mM in PBS, were used to pretreat the T cells for 15 min before seeding the cells *, P<0.05. The results shown in Tables 1A, 1B and 1C represent data obtained from several experiments that produced essentially similar results.
(§3) The four RGD surrogates, AC-4.

[3] = system: CD4^+ T cell adhesion to 120 kD fragment of FN; assay: Inhibition of activated CD4+ T cell adhesion to 120 kD fragment of FN; assay type: cell-based, human; conditions: for % inhibition of adhesion of activated CD4^+ T cell to 120 kD fragment of FN / % Adhesion of activated CD4^+ T cell to 120 kD fragment of FN: 0.2 mM peptides and surrogates, mAb anti-CD29 1/200, anti-VLA5 1/400 diluted; for % inhibition of adhesion of activated CD4^+ T cell to 120 kD fragment of FN: * P<0.05; for % Adhesion of activated CD4^+ T cell to 120 kD fragment of FN: PMA activated, none 43 ± 4; for T cell adhesion to FN, in words: 0.2 mM, 120 kD fragment of FN
Procedure: as §1, §2, §3

[4] = system: B16-melanoma cells adhesion to VN; assay: Inhibition of B16-melanoma cell adhesion to VN; assay type: cell-based, murine; conditions: surrogates 0.2 mM; for % inhibition of adhesion of B16-melanoma cells to VN: * P<0.05; for % Adhesion of B16-melanoma cells to VN: none 68 ± 5
Procedure: (§4) To examine the adhesive properties of tumor cells, 1 μg/50μ/well of FN or 0.3μg/well of VN were added to 96-flat bottom microtiter wells for 12 h. Unbound proteins were then washed away and remaining binding sites were blocked with 0.1% BSA added to the wells for 2 h and washed. Murine B16-melanoma F-1 cells were metabolically labeled with ^35 S-methionine (New England Nuclear) for 2 h, chased for 18 h and extensively washed. The cell suspension was resuspened in RPMI supplemented with 1% BSA containing 1 mM CaCl2 and MgCl2. Tumor cell adhesion to control wells or to wells coated with BSA was always 2-5%. The tested non-peptidic surrogates, 0.2 mM in PBS, were used to pretreat the tumor cells for 15 min before seeding the cells *, P<0.05.
(§5) In a first series of experiments, the potential inhibitory action of the RGD surrogate SF-6,5 on adhesion of B16 melanoma cells to FN or VN was compared to that of the RGE surrogate SF-6,6 and to that of RGD, GRGDSPK and GRGESP peptides.

[5] = target: T1, platelet GPIIb-IIIa receptor (Homo sapiens, UniProt P05106+P08514); assay: Inhibition of ADP-induced platelet aggregation (platelet rich plasma); assay type: cell-based; conditions: FIG. 4; fixed sub-saturating 0.5 mM / 10μg/ml; 4 experiments
T1 construct: Platelet concentrates were prepared from human whole blood; endogenous in cells; host or cells: human platelets in platelet rich plasma
Procedure: To investigate the inhibitory role of the RGD analogues on adhesion, the platelet GPIIb-IIIa receptor which mediates platelet aggregation upon activation was used as a model.
Platelet concentrates were prepared from human whole blood in 10% adenine-citrate-dextrose in Fenwall bags (Baxter Travenol, Israel) followed by standard AABB protocol. Platelet rich plasma was prepared by centrifugation (2500 rpm for 5 min). Samples of platelets were counted in a Minos AST Cell Counter (Levoiselle, France). Cell aggregation was induced by […] and monitored at […] in a 4-channel Aggregometer (Bio-Data, Hatboro, Pa.). To evaluate the effect of the various RGD peptides and the peptide analogues, the platelet rich plasma was pre-incubated with the various inhibitors for 10 min at 37° C. with 10μsolutions followed by the induction of aggregation.
To examine the specificity of the inhibitory effect of the RGD-analogues on platelet aggregation, the cells were treated with various peptidic (RGD and GRGDSP) and non-peptidic (SF-6,6, SF-6,5 and AC-15) RGD analogues used at a fixed sub-saturating concentration of 0.5 mM.
An in vitro assay as described in Example 17 was carried out with the compound NS-11 to examine its ability to interfere with platelet aggregation, and compared it to the SF-6,5 surrogate.
Platelet rich plasma (PRP) was prepared from acid/citrate/dextrose anti-coagulated fresh human blood by differential centrifugation. Platelet aggregation was induced by […] and monitored at 695 nm by a 4-channel Aggregometer (Bio-Data, PA). To evaluate the effect of the RGDS peptide and the NS-8, NS-11 and NS-15 analogs, the PRP was preincubated with the inhibitors for 10 minutes at 37° C., prior to the induction of aggregation. […] In fact, 50% inhibition of platelet aggregation was achieved using a 30-fold lower concentration of NS-11 than that of RGDS.

[6] = system: B16-melanoma cells adhesion to FN; assay: Inhibition of B16-melanoma cell adhesion to FN; assay type: cell-based, murine; conditions: surrogates 0.2 mM; for % inhibition of adhesion of B16-melanoma cells to FN: * P<0.05; for % Adhesion of B16-melanoma cells to FN: none 75 ± 5
Procedure: as §4, §5
In a further set of experiments, the inhibitory activity of the RGD surrogates SF-6,5 and NS-11 on the adhesion of B16 murine melanoma cells to FN was compared to that of the GRGDSP peptide.

T1 sequence (P08514 32-887 limits assumed): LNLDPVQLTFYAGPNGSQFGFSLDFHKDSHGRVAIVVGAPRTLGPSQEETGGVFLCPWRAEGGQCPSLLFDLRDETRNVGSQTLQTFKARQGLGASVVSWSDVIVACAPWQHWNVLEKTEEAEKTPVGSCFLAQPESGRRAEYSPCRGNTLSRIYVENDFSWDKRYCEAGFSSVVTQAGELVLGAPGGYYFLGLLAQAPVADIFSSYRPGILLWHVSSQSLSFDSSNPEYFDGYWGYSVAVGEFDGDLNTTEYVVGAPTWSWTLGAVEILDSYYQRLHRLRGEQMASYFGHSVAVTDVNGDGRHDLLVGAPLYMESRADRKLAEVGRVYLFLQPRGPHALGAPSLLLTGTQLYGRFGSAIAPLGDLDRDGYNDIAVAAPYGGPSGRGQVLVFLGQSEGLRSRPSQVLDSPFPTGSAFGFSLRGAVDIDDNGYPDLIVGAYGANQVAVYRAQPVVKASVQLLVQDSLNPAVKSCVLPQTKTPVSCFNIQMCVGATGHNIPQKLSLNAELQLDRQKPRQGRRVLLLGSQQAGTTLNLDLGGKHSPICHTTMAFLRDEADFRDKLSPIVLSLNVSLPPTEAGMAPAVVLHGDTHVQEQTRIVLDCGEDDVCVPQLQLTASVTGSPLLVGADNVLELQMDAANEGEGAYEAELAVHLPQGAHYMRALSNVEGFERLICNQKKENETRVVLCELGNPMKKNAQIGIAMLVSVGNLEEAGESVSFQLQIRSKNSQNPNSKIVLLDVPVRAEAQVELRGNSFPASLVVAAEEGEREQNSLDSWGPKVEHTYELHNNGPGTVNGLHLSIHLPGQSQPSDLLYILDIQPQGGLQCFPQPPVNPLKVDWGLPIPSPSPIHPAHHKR
T1 sequence (P08514 891-1039 limits assumed): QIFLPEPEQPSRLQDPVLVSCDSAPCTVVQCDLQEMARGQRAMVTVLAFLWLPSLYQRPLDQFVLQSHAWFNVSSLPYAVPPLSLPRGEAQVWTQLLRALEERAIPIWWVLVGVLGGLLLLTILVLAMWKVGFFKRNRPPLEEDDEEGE
T1 sequence (P05106 27-788): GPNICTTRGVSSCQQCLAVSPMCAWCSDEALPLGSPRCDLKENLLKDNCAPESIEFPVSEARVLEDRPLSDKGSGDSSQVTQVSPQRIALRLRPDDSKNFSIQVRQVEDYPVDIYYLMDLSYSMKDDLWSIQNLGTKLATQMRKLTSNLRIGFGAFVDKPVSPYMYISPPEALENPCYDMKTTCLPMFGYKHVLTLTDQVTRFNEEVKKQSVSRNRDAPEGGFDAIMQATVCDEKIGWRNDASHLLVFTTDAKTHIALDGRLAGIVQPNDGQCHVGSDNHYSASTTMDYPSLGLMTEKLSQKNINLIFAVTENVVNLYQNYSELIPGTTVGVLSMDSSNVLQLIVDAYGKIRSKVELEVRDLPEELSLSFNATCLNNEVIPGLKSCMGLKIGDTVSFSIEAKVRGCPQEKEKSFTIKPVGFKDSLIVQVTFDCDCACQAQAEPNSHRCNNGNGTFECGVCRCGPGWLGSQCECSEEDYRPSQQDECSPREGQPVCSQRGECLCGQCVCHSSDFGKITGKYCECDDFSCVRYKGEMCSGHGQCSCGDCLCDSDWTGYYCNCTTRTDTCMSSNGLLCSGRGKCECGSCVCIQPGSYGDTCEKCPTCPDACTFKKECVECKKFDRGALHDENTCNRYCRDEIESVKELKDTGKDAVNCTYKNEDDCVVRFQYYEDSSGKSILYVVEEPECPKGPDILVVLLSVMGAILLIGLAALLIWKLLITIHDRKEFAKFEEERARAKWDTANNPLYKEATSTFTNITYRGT

Compound	% Inhibition of adhesion [1] [%]	% Adhesion of activated CD4^+ to FN [1] [%]	% inhibition of adhesion of activated CD4^+ T cell to LN [2] [%]	% Adhesion of activated CD4^+ T cell to LN [2] [%]	% inhibition of adhesion of activated CD4^+ T cell to 120 kD fragment of FN [3] [%]	% Adhesion of activated CD4^+ T cell to 120 kD fragment of FN [3] [%]	T cell adhesion to FN, in words [3]	T cell adhesion to LN, in words ([2]; 0.2 mM)	% inhibition of adhesion of B16-melanoma cells to VN [4] [%]	% Adhesion of B16-melanoma cells to VN [4] [%]	Inhibition of platelet aggregation at fixed concentration, in words [5]	% inhibition of adhesion of B16-melanoma cells to FN [6] [%]	% Adhesion of B16-melanoma cells to FN [6] [%]
N=C(N)NCCCCC(=O)N1CCCCC1C(=O)NCCC(=O)O (stereo not shown) [NS-8]	31	45	–	–	–	–	–	–	–	–	–	–	–
N=C(N)NCCCC(=O)NCCC(=O)NCCC(=O)O [AC-14, 4,8-diaza-5,9-dioxo-12-quanidino-dodecanoic acid]	–	–	0	55 ± 6	42	25 ± 4	inhibited T cell adhesion to FN	–	–	–	–	–	–
NCCCCCC(=O)NCCCCC(=O)O [SFN-70, reference compound]	–	–	0	49 ± 6	0	42 ± 5	did not inhibit T cell adhesion to both FN and LN	did not inhibit T cell adhesion to both FN and LN	–	–	–	–	–
Arg-Gly-Asp [RGD]	–	–	0	57 ± 3	12	38 ± 3	specifically inhibited	–	0	66 ± 6	not an effective inhibitor	7	70 ± 3
GRGESP	–	–	0	52 ± 3	0	46 ± 3	–	–	0	66 ± 8	–	0	73 ± 5
RGDS [reference compound]	67	22	–	–	–	–	–	–	–	–	–	–	–
N=C(N)NCCCCC(=O)NCCCCCC(=O)O [AC-15, 7-aza-8-oxo-12-quanidino-dodecanoic acid]	–	–	0	52 ± 4	19	35 ± 5	inhibited T cell adhesion to FN	–	–	–	even higher than that of the GRGDSPK peptide	–	–
N=C(N)NCCC(=O)Nc1cccc(C(=O)NCCC(=O)O)c1 [NS-15]	59	27	–	–	–	–	–	–	–	–	–	–	–
N=C(N)NCCCCC(=O)NCC(=O)NCCC(=O)O [AC-4, 4,7-diaza-5,8-dioxo-12-quanidino-dodecanoic acid]	–	–	0	57 ± 4	47	16 ± 3	inhibited T cell adhesion to FN	–	–	–	–	–	–
